Results on ten molecules are retold here after article PMC2802001, “Binding of Natural and Synthetic Polyphenols to Human Dihydrofolate Reductase” (International Journal of Molecular Sciences, 2009).

“And” between values parts separate entries of the source, which are not always exact repeats. Identical values can stand only once. “Also recorded” adds a separate entry of the source.

In data set [1] the target is T1, human DHFR (Homo sapiens, UniProt P00374).
T1 construct: purchased Sigma
T1 sequence (P00374 1-187): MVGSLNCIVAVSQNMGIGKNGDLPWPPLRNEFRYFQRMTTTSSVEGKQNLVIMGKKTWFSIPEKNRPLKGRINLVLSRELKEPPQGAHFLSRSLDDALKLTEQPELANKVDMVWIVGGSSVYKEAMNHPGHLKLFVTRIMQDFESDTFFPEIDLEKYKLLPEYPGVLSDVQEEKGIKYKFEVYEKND
As to the kind of experiment: Fluorescence titration (quenching of tryptophan fluorescence) for binding to free DHFR. To be noted: for Kd / Binding to human DHFR (effect on enzyme fluorescence), in words: fluorescence quenching; for Kd: excitation 290 nm, enzyme 0.1 μM, pH 7.4, read-out: KD, dissociation constant for binding to human DHFR. The protocol:
Highly purified tea polyphenols EGCG (>95%), ECG (>98%), EGC (>98%), and EC (>98%) were purchased from Sigma Chemical Co. (Madrid, Spain). Qgal, Qglc, Qrha and Qxyl were form Fluka (Madrid, Spain). […] To synthesize TMECG-QM, a TMECG solution (0.5 mM) in phosphate buffered saline (PBS), pH 7.0, was alkalinize at pH 8.5 with NaOH. The reaction was followed spectrophotometrically at 470 nm and, after completion, the sample was neutralized by adding HCl. Recombinant human DHFR was purchased from Sigma and its concentration was determined by MTX titration of enzyme fluorescence.
The fluorescence of DHFR is reduced on binding of substrates and inhibitors, and this property may be used as a convenient method for determining both the enzyme concentration and the dissociation constants of enzyme-ligands complexes. Dissociation constants for the binding of polyphenols to free DHFR were determined by fluorescence titration in an automatic-scanning Perkin-Elmer LS50B spectrofluorimeter with 1.0 cm light path cells and equipped with a 150W xenon (XBO) light source. The formation of the binary complex between the enzyme and the ligand was followed by measuring the quenching of tryptophan fluorescence of the enzyme upon addition of microliter volumes of a concentrated stock solution of ligand. Fluorescence emission spectra were recorded when DHFR fluorescence was excited at 290 nm. All measurements were corrected for dilution and the data from the titration curves were fitted as described previously. Titrations were performed in a buffer containing 2-(N-morpholino)ethanesulfonic acid (Mes, 0.025 M), sodium acetate (0.025 M), tris(hydroxymethyl)aminomethane (Tris 0.05 M), and NaCl (0.1 M), at pH 7.4.

In data set [2] the target is T1, human DHFR. As to the kind of experiment: Human DHFR activity assayed in the presence of tea catechins. It is filed as biochemical. The protocol:
In order to detect which components of these extracts were responsible for such inhibition, human DHFR activity was assayed in the presence of EC, EGC, ECG or EGCG. […] The effective binding of ECG to free human DHFR was determined by following the decrease in enzyme fluorescence that occurs after formation of the enzyme-inhibitor complex (Figure 3).

For the next data set, the system named is bovine liver DHFR. More on the design: method as in PMID 15781612. To be noted: cited from earlier work.
A further data set relates to chicken liver DHFR. More on the design: method as in PMID 15781612. As to conditions: cited from earlier work.
Data set [3] is described as follows: Stability of TMECG in solution at neutral and alkaline pH. It is filed as physicochemical. The protocol: Despite the excellent anticancer properties of tea catechins, they have at least one great limitation: their poor bioavailability. The reduced availability of catechins is related with their low stability in neutral or slightly alkaline solutions and their poor ability to cross cellular membranes. […] This synthetic catechin also bound human DHFR with an effective dissociation constant of 2.1 ± 0.2 μM (Figure 5; Table 1). […] By analogy with the oxidation of quercetin in alkaline solution [19], the proposed structure for this compound is depicted in Figure 6 and was identified as a quinone methide (TMECG-QM) with an open structure.
Highly purified tea polyphenols EGCG (>95%), ECG (>98%), EGC (>98%), and EC (>98%) were purchased from Sigma Chemical Co. (Madrid, Spain). Qgal, Qglc, Qrha and Qxyl were form Fluka (Madrid, Spain). TMECG was successfully synthesized (70% recovery) from catechin with the subsequent inversion of the stereochemistry at C-3 and by reaction of with 3,4,5-trimethoxybenzoylchloride (Sigma). To synthesize TMECG-QM, a TMECG solution (0.5 mM) in phosphate buffered saline (PBS), pH 7.0, was alkalinize at pH 8.5 with NaOH. The reaction was followed spectrophotometrically at 470 nm and, after completion, the sample was neutralized by adding HCl. Recombinant human DHFR was purchased from Sigma and its concentration was determined by MTX titration of enzyme fluorescence.

Data set [4] relates to different cancer cell lines. The arrangement: method as in PMID 18324763. As to conditions: cited from earlier work.
Details of data set [5]: method as in PMID 18324763. To be noted: cited from earlier work.

Take `O=C(OC1Cc2c(O)cc(O)cc2OC1c1ccc(O)c(O)c1)c1cc(O)c(O)c(O)c1` (single isomer, unassigned; (-)) [ECG, (-)-epicatechin gallate]: the Kd (commonly the free concentration of one partner at which half of the binding sites on the other are occupied at equilibrium, for simple one-to-one binding) on human DHFR [1] is 1800 nM and 1780 nM. The “Inhibition of human DHFR activity, in words” value (“Inhibition … in words” below) at human DHFR [2] was “potent inhibitors”.
For the molecule `O=c1c(OC2OCC(O)C(O)C2O)c(-c2ccc(O)c(O)c2)oc2cc(O)cc(O)c12` [Qxyl, quercetin-3-D-xyloside], the Kd at human DHFR [1] was 600 nM and 590 nM.
Regarding `O=c1c(O[C@@H]2O[C@H](CO)[C@H](O)[C@H](O)[C@H]2O)c(-c2ccc(O)c(O)c2)oc2cc(O)cc(O)c12` [Qgal, quercetin-3-D-galactoside], at human DHFR [1], the Kd was found to be 22800 ± 3200 nM.
`O=C(O[C@@H]1Cc2c(O)cc(O)cc2O[C@@H]1c1cc(O)c(O)c(O)c1)c1cc(O)c(O)c(O)c1` [EGCG, (-)-epigallocatechin gallate]: at human DHFR [1], the Kd was 900 nM and 920 nM. On human DHFR [2], the “Inhibition … in words” value is “potent inhibitors”. The “Type of inhibition of DHF reduction” value in the data set on bovine liver DHFR is reported as “slow-binding inhibitor”; with chicken liver DHFR it was “classical, reversible, competitive inhibitor”.
`CC1OC(Oc2c(-c3ccc(O)c(O)c3)oc3cc(O)cc(O)c3c2=O)C(O)C(O)C1O` (stereo not drawn) [Qrha, quercetin-3-rhamnoside]: the Kd at human DHFR [1] worked out at 17200 ± 2400 nM.
Same read-out and setting: then `O=c1c(O[C@@H]2O[C@H](CO)[C@@H](O)[C@H](O)[C@H]2O)c(-c2ccc(O)c(O)c2)oc2cc(O)cc(O)c12` [Qglc, quercetin-3-β-D-glucoside], with 102000 ± 9000 nM.
With `COc1cc(C(=O)O[C@H](Cc2c(O)cc(O)cc2O)/C(O)=C2/C=CC(=O)C(O)=C2)cc(OC)c1OC` [TMECG-QM], the “Affinity for human DHFR relative to EGCG, ECG or TMECG” value on human DHFR [1] (compared with EGCG, ECG or TMECG) is on record as “more than two-order of magnitude more strongly”. Also, the “Affinity for human DHFR relative to MTX” value on human DHFR [1] (compared with MTX) is “forty-times less”.
As to `COc1cc(C(=O)O[C@@H]2Cc3c(O)cc(O)cc3OC2c2ccc(O)c(O)c2)cc(OC)c1OC` (stereo partly drawn) [TMECG, 3-O-(3,4,5-trimethoxybenzoyl)-(-)-epicatechin], at human DHFR [1], the Kd worked out at 2100 ± 200 nM. In data set [3] (alkaline pH, band at 470 nm), the “Stability at alkaline pH” value is given as “rapidly evolves to an orange compound”. The “Stability at neutral pH” value in data set [3] (neutral pH) is “highly stable”. Further, the Antiproliferative activity entry in data set [4] was “significant antiproliferative activity”. In addition, the Bioavailability in vitro entry in data set [5] is “high bioavailability in vitro”.
Take `Oc1cc(O)c2c(c1)O[C@H](c1ccc(O)c(O)c1)[C@H](O)C2` [EC, (-)-epicatechin]: the “Binding to human DHFR (effect on enzyme fluorescence), in words” value on human DHFR [1] is “did not modify the emission spectra; also recorded: did not bind”. Besides, the “Inhibition … in words” value at human DHFR [2] is listed as “did not inhibit”.
For `Oc1cc(O)c2c(c1)OC(c1cc(O)c(O)c(O)c1)C(O)C2` (single isomer, unassigned; (-)) [EGC, (-)-epigallocatechin] the same measures were “did not bind” and “did not inhibit”.
